Experimental data published in patent US20050048508A1, “Trehalose receptor and method for detecting trehalose with the same” (KABUSHIKI KAISHA HAYASHIBARA SEIBUTSU KAGAKU KENKYUJO, priority 2002, published 2005).

Biological target: T1, T1R3 with G protein α-subunits (α15 and α16/Z chimeric protein) (Mus musculus, UniProt Q925D8, I706N)
T1 construct: expressed in transfected cells; host or cells: 293 cells, RCB 1637 (human embryonic kidney)
T1 sequence (Q925D8 21-858 I706N): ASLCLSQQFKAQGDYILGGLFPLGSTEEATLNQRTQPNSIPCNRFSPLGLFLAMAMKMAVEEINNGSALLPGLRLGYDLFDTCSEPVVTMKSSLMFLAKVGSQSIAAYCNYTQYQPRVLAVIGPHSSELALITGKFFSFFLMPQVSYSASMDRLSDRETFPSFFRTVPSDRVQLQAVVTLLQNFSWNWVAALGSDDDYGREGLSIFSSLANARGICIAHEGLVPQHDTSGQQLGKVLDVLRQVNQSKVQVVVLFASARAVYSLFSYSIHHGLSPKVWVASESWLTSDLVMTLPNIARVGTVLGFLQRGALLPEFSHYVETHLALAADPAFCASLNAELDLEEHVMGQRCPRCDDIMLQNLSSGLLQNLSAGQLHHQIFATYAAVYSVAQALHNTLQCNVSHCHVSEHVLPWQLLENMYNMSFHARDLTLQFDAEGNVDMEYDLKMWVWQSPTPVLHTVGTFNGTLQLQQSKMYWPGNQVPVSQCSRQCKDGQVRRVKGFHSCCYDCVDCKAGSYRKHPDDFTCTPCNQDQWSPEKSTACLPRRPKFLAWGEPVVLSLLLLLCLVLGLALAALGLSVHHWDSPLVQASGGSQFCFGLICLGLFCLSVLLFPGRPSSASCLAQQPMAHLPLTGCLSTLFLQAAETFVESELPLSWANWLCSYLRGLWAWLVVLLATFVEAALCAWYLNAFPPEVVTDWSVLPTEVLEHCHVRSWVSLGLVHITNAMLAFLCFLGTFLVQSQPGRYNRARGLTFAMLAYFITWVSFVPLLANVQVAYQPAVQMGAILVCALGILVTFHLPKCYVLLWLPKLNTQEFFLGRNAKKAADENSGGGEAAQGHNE
Assay: Intracellular calcium ion assay, 293 cells coexpressing G protein α-subunits and T1R3 (trehalose receptor)
Assay type: cell-based
Method: The coexpression vector for the G protein α-subunit α15 and the G protein α16/Z chimeric protein (hereinafter designated as “G protein α-subunits”) obtained in Example 1-3 was gene transferred to 293 cells, RCB 1637, a human embryonic kidney cell line, available from the Riken Bioresource Center, Ibaraki, Japan, by conventional lipofection. The gene transferred cells were suspended in Dulbecco's Modified Eagle's Medium (D-MEM) supplemented with 1 mg/L of “PUROMYCIN”, a trade mane of puromycin commercialized by Edge Biosystems, MD, USA, and 10% (v/v) of fetal calf serum to give a cell density of 2×10^6 cells/ml and cultured in a plastic petri dish for cell culture. After 10 to 14 days of incubation, a puromycin-resistant cell colony was collected and confirmed its production of the G protein α-subunit proteins with an index of their mRNA level by conventional RT-PCR. Thus, a cell line capable of expressing the G protein α-subunit proteins was established. To the cells were gene transferred an expression vector for the sweet taste receptor protein T1R1, T1R2, or T1R3 in Example 2-2; or a coexpression vector for a pair of T1R1 and T1R2, T1R1 and T1R3, or T1R2 and T1R3 by conventional lipofection. The resulting cells were suspended in D-MEM supplemented with 1 mg/L of “PUROMYCIN”, 500 mg/L of “GENETICIN”, and 10% (v/v) of fetal calf serum and cultured in a plastic petri dish for cell culture. After 10 to 14 days of incubation, a cell colony resistant to both of the above drugs was collected and confirmed that the transferred gene had been expressed intracellularly as expected by conventional RT-PCR at a mRNA level. Thus, a cell, which had coexpressed the desired G proteins and sweet taste receptors, was obtained. As a control, a cell, into which an expression vector with no G protein α-subunit protein gene or sweet taste receptor protein gene, was prepared and used.
The captioned reactivity test was conducted according to a conventional intracellular calcium ion assay: 293 Cells prepared in Example 3, capable of coexpressing the G protein α-subunits and the sweet taste receptor(s), were cultured in a plastic petri dish for cell culture until reaching its confluent phase. Thereafter, the cells were detached from the inner surface of the petri dish with a 0.05% (v/v) trypsin solution and a 0.53 mM EDTA solution, suspended in D-MEM supplemented with 10% (v/v) fetal calf serum to give a cell density of 1×10^6 cells/ml, and allowed to intake “FLUO-4. AM”, a reagent for detecting intracellular calcium ion commercialized by Molecular Probes Inc., Ore., USA, by adding to the cell suspension to give a final concentration of 2 μM and incubating the cells at 37 ° C. for 30 to 90 min. The resulting cells were washed with a buffer for detecting calcium ion, which contained 10 mM HEPES (pH 7.4), 130 mM sodium chloride, 5.4 mM potassium chloride, 2 mM calcium chloride, 1 mM magnesium chloride, 5.5 mM D-glucose, 0.1% (v/v) calf serum albumin, and 1 mM sodium pyruvate to remove the reagent remained extracellularly; suspended in a fresh preparation of the same buffer to give a cell density of 2.67 ×10^7 cells/ml; filtered with a membrane with a pore size of 100 μm mesh; and allowed to stand at 25° C. for 30 min. Two milliliters of the resultant cell suspension was injected into a glass cuvette, commercialized by Hitachi, Ltd., Tokyo, Japan, and analyzed on “HITACHI 650-40”, a fluorescence spectrophotometer commercialized by Hitachi, Ltd., Tokyo, Japan. […]

[1] = 293 cells: T1R3 + G protein α-subunits, 0.67 ml of 1 M saccharide solution added to 2 ml cell suspension, FLUO-4 AM
[2] = Table 4: sweet taste substances on cells coexpressing G protein α-subunits and T1R3, measured similarly as in Example 4

Row | Structure (SMILES) | Influx of calcium ion [1] | Influx of calcium ion (293 cells: T1R3 + G protein α-subunits, 0.67 ml of 1 M saccharide solution added to 2 ml cell suspension, FLUO-4 AM, listed as trehalose) | Influx of calcium ion [2]
1 | OC[C@H]1O[C@H](O[C@H]2O[C@H](CO)[C@@H](O)[C@H](O)[C@H]2O)[C@H](O)[C@@H](O)[C@@H]1O [Trehalose] | Positive | reacted | Positive
2 | OC[C@H]1O[C@@](CO)(O[C@H]2O[C@H](CO)[C@@H](O)[C@H](O)[C@H]2O)[C@@H](O)[C@@H]1O [Sucrose, reference compound] | Negative |  | Negative
